Laboratory results: the CheMixHub viscosity set
± gives the uncertainty stated by the source.

Assay: xn = mol fraction of the nth substance listed

C=CC(=O)OC + c1ccccc1
viscosity [mPa·s], 101 kPa
Details	x2 = 0.105	x2 = 0.2191	x2 = 0.3452	x2 = 0.4069	x2 = 0.5314	x2 = 0.6457	x2 = 0.714	x2 = 0.7852	x2 = 0.8977
298.15 K	0.472 ± 0.008	0.485 ± 0.008	0.501 ± 0.008	0.509 ± 0.008	0.526 ± 0.008	0.543 ± 0.008	0.554 ± 0.008	0.565 ± 0.009	0.585 ± 0.009
303.15 K	0.433 ± 0.007	0.447 ± 0.007	0.462 ± 0.008	0.47 ± 0.008	0.488 ± 0.008	0.505 ± 0.008	0.515 ± 0.008	0.526 ± 0.008	0.545 ± 0.008
308.15 K	0.398 ± 0.007	0.412 ± 0.007	0.428 ± 0.007	0.436 ± 0.007	0.453 ± 0.007	0.47 ± 0.008	0.481 ± 0.008	0.492 ± 0.008	0.51 ± 0.008
313.15 K	0.369 ± 0.007	0.382 ± 0.007	0.392 ± 0.007	0.403 ± 0.007	0.418 ± 0.007	0.433 ± 0.007	0.442 ± 0.007	0.452 ± 0.007	0.467 ± 0.008

C=CC(=O)OCCCC + c1ccccc1
viscosity [mPa·s], 101 kPa
Details	x2 = 0.1282	x2 = 0.2182	x2 = 0.2926	x2 = 0.4108	x2 = 0.4964	x2 = 0.5923	x2 = 0.708	x2 = 0.7944	x2 = 0.9032
298.15 K	0.799 ± 0.01	0.773 ± 0.01	0.749 ± 0.01	0.719 ± 0.01	0.699 ± 0.01	0.679 ± 0.009	0.658 ± 0.009	0.641 ± 0.009	0.62 ± 0.009
303.15 K	0.738 ± 0.01	0.709 ± 0.01	0.686 ± 0.009	0.656 ± 0.009	0.636 ± 0.009	0.618 ± 0.009	0.601 ± 0.009	0.59 ± 0.009	0.574 ± 0.009
308.15 K	0.683 ± 0.009	0.649 ± 0.009	0.625 ± 0.009	0.595 ± 0.009	0.576 ± 0.008	0.564 ± 0.008	0.554 ± 0.008	0.545 ± 0.008	0.531 ± 0.008
313.15 K	0.62 ± 0.009	0.585 ± 0.008	0.565 ± 0.008	0.538 ± 0.008	0.524 ± 0.008	0.51 ± 0.008	0.501 ± 0.008	0.496 ± 0.008	0.485 ± 0.008

CC(C)(C)c1ccccc1 + c1ccccc1
303.15 K, 101.3 kPa
Details	viscosity [mPa·s]
x2 = 0.0424	0.9763 ± 0.0079
x2 = 0.1376	0.9194 ± 0.0075
x2 = 0.2605	0.8507 ± 0.0069
x2 = 0.4018	0.7791 ± 0.0064
x2 = 0.5266	0.725 ± 0.006
x2 = 0.682	0.6637 ± 0.0056
x2 = 0.7952	0.6265 ± 0.0054
x2 = 0.865	0.6036 ± 0.0052
x2 = 0.9376	0.5792 ± 0.005

CC(C)CO + c1ccccc1
303 K, 101.3 kPa
Details	viscosity [mPa·s]
x2 = 0.1012	2.322 ± 0.068
x2 = 0.2055	1.88 ± 0.059
x2 = 0.3024	1.551 ± 0.052
x2 = 0.4124	1.26 ± 0.047
x2 = 0.511	1.057 ± 0.043
x2 = 0.6016	0.9052 ± 0.041
x2 = 0.706	0.7704 ± 0.039
x2 = 0.8037	0.6783 ± 0.038
x2 = 0.8987	0.6131 ± 0.037

CCOC(=O)CC + c1ccccc1
viscosity [mPa·s], 101.3 kPa
Details	308.15 K	318.15 K
x1 = 0.0521	0.53 ± 0.005	0.47 ± 0.004
x1 = 0.0984	0.525 ± 0.005	0.47 ± 0.004
x1 = 0.2018	0.513 ± 0.005	0.469 ± 0.004
x1 = 0.3029	0.503 ± 0.005	0.468 ± 0.004
x1 = 0.4009	0.495 ± 0.005	0.465 ± 0.004
x1 = 0.4991	0.487 ± 0.004	0.462 ± 0.004
x1 = 0.5982	0.481 ± 0.004	0.459 ± 0.004
x1 = 0.7114	0.475 ± 0.004	0.453 ± 0.004
x1 = 0.8042	0.472 ± 0.004	0.448 ± 0.004
x1 = 0.8989	0.469 ± 0.004	0.443 ± 0.004
x1 = 0.92	0.468 ± 0.004	0.441 ± 0.004

Cc1ccccc1O + c1ccccc1
viscosity [mPa·s]
Details	298.15 K	308.15 K	318.15 K	323.15 K
101 kPa, x1 = 0.1176	–	0.641 ± 0.0055	–	–
101 kPa, x1 = 0.2203	–	0.7752 ± 0.0065	–	–
101 kPa, x1 = 0.3357	–	0.9753 ± 0.008	–	–
101 kPa, x1 = 0.4352	–	1.164 ± 0.0094	–	–
101 kPa, x1 = 0.5693	–	1.535 ± 0.012	–	–
101 kPa, x1 = 0.6728	–	2.109 ± 0.016	–	–
101 kPa, x1 = 0.7757	–	2.775 ± 0.021	–	–
101 kPa, x1 = 0.896	–	3.774 ± 0.028	–	–
101.33 kPa, x1 = 0.1	0.704 ± 0.019	0.609 ± 0.016	0.531 ± 0.014	0.497 ± 0.013
101.33 kPa, x1 = 0.2	0.849 ± 0.023	0.727 ± 0.02	0.623 ± 0.017	0.578 ± 0.016
101.33 kPa, x1 = 0.4	1.319 ± 0.036	1.073 ± 0.029	0.894 ± 0.024	0.815 ± 0.022
101.33 kPa, x1 = 0.5	1.661 ± 0.045	1.334 ± 0.036	1.084 ± 0.03	0.981 ± 0.027
101.33 kPa, x1 = 0.6	2.148 ± 0.059	1.668 ± 0.046	1.331 ± 0.036	1.186 ± 0.032
101.33 kPa, x1 = 0.8	3.874 ± 0.11	2.766 ± 0.077	2.067 ± 0.057	1.807 ± 0.049

Cc1ccccc1O + c1ccncc1
viscosity [mPa·s], 101 kPa
Details	x1 = 0.09109	x1 = 0.1923	x1 = 0.2702	x1 = 0.3823	x1 = 0.4812	x1 = 0.5958	x1 = 0.7186	x1 = 0.8145	x1 = 0.8918
293.15 K	1.176 ± 0.012	1.556 ± 0.015	1.983 ± 0.019	2.962 ± 0.03	4.455 ± 0.048	6.845 ± 0.081	9.26 ± 0.12	10.04 ± 0.14	10.01 ± 0.14
303.15 K	1.022 ± 0.01	1.35 ± 0.013	1.724 ± 0.017	2.56 ± 0.025	3.625 ± 0.036	4.935 ± 0.054	6.23 ± 0.072	6.565 ± 0.078	6.45 ± 0.078
313.15 K	0.886 ± 0.009	1.148 ± 0.011	1.436 ± 0.014	2.045 ± 0.02	2.75 ± 0.027	3.575 ± 0.036	4.29 ± 0.044	4.415 ± 0.046	4.325 ± 0.045
